Experimental data: patent US20190231785A1, “PHOSPHODIESTERASE INHIBITOR TREATMENT” (Cyrano Therapeutics, Inc., priority 2012, published 2019)
Marks after values point to notes of the source that are not given here.

Tested on: patients with hyposmia
Assay: Olfactometry (DT, RT, ME, H; forced-choice, three-stimuli, stepwise-staircase, four odors), open trial of oral theophylline
Assay type: in vivo, human
Source text: Patients initially reported their sensory dysfunction as either loss of taste (e.g., flavor) and/or smell function. This subjective response was documented by objective psychophysical measurements of olfactory function administered to each patient by use of a forced-choice, three-stimuli, stepwise-staircase technique in a fixed, controlled design (1, 53). Efficacy of this technique and results of testing were previously documented in a double-blind clinical trial (53). Four odors were used; they were pyridine (dead-fish odor), nitrobenzene (bitter-almond odor), thiophene (petroleum-like odor) and amyl acetate (banana-oil odor). Detection thresholds (DT), recognition thresholds (RT) and magnitude estimation (ME) values for each odor were determined as previously described (1, 53). Thresholds were converted into bottle units (BU) as previously described (53) and results reported as M±SEM of correct responses for each odor in each treatment group; ME was reported in % and results calculated to obtain M±SEM for each treatment group for all correct responses using data for the four highest odor concentrations presented (from 10^−2M—an absolute odor concentration).
In addition, each patient graded the hedonic (H) value of each odor presented for these same odor concentrations (from 10^−2M—an absolute odor concentration using a −100-0-+100 scale). […] Results were obtained by calculating the arithmetical sum of each correct recognition response for each odor with respect to its pleasantness, unpleasantness or neutrality. Arithmetic M±SEM were obtained for each treatment group for each odor presented.
After determination of hyposmia, patients were treated in an open label, fixed design, controlled open trial. Patients were given an oral extended release theophylline in divided daily doses taken in the middle of breakfast and lunch. All patients were initially given 200 mg of theophylline; changes in this dose were made based upon subjective responses to therapy. If at a subsequent return visit, patients reported ≥5% subjective improvement in overall smell function, they continued on this same dose of theophylline and were reevaluated after four to six months of continued treatment. Results from any subsequent return from these improved patients were not included in any subsequent data report. All subsequent comparisons between treated and untreated patients were made only between those patients continuing in the study compared to their own measurements obtained in the untreated state. If patients reported <5% subjective improvement, their theophylline dose was increased by 200 mg daily and they were scheduled for retesting at the study site after two to four months at this new dosage. For patients that reported <5% improvement, this sequence continued until patients reached 800 mg of theophylline, at which time the study was considered completed.
Patients returned for reevaluation after two to four months of treatment. Measurements of blood serum theophylline were measured by a fluorescence polarization assay (Abbott, Chicago, Ill.). At this time, subjective changes in smell function were measured independently (compared to patient's memory of previous normal smell function monitored by use of the patients' daily measurements) using the scale from −100-0-+100 previously described (vs). After independently recording their subjective responses, smell function was measured for all four odors with DT, RT, ME and H determined without recourse to prior measurements.
Since data for all measurements from each patient group (local or distant) on each dose level were combined mean and SEM for each measurement (DT, RT, ME, H) of smell function for each treatment group were calculated on this basis. Differences in measurements between before treatment and each treatment level were calculated and significance of differences estimated using Student t tests (values p<0.05 considered significant). […]

[1] = Type I hyposmia, oral 200 mg, after treatment (57 patients), mean ± SEM
[2] = Type I hyposmia, oral 400 mg, after treatment (33 patients), mean ± SEM
[3] = Type I hyposmia, oral 600 mg, after treatment (51 patients), mean ± SEM
[4] = Type I hyposmia, oral 800 mg, after treatment (12 patients), mean ± SEM
[5] = Type II hyposmia, oral 200 mg, after treatment (138 patients)
[6] = Type II hyposmia, oral 400 mg, after treatment (85 patients)
[7] = Type II hyposmia, oral 600 mg, after treatment (105 patients)

## Cn1c(=O)c2[nH]cnc2n(C)c1=O [theophylline]
[1]
  detection threshold (DT), pyridine: 9.5 ± 0.2 BU
  hedonic value (H), amyl acetate: 4 ± 2^a %
  hedonic value (H), nitrobenzene: 4 ± 2^a %
  hedonic value (H), pyridine: −8 ± 2^a %
  hedonic value (H), thiophene: −3 ± 2^a %
  magnitude estimation (ME), amyl acetate: 6 ± 2^a %
  magnitude estimation (ME), nitrobenzene: 5 ± 2^a %
  magnitude estimation (ME), pyridine: 11 ± 2^a %
  magnitude estimation (ME), thiophene: 6 ± 2^a %
  recognition threshold (RT), pyridine: 11.0 ± 0.2^a BU
[2]
  detection threshold (DT), nitrobenzene: 9.8 ± 0.5^a BU
  detection threshold (DT), pyridine: 8.8 ± 0.5 BU
  detection threshold (DT), thiophene: 9.8 ± 0.5^a BU
  hedonic value (H), amyl acetate: 5 ± 3^a %
  hedonic value (H), nitrobenzene: 3 ± 3^a %
  hedonic value (H), pyridine: −7 ± 3^a %
  hedonic value (H), thiophene: −5 ± 2^a %
  magnitude estimation (ME), amyl acetate: 7 ± 3^a %
  magnitude estimation (ME), nitrobenzene: 8 ± 3^a %
  magnitude estimation (ME), pyridine: 12 ± 3^a %
  magnitude estimation (ME), thiophene: 7 ± 2^a %
  recognition threshold (RT), pyridine: 10.6 ± 0.4 BU
[3]
  detection threshold (DT), nitrobenzene: 9.9 ± 0.4^c BU
  detection threshold (DT), pyridine: 8.9 ± 0.3^b BU
  detection threshold (DT), thiophene: 9.4 ± 0.4^a BU
  hedonic value (H), amyl acetate: −0.4 ± 1%
  hedonic value (H), nitrobenzene: 2 ± 2%
  hedonic value (H), pyridine: −8 ± 2^a %
  hedonic value (H), thiophene: −3 ± 2^a %
  magnitude estimation (ME), amyl acetate: 5 ± 2^a %
  magnitude estimation (ME), nitrobenzene: 6 ± 2^a %
  magnitude estimation (ME), pyridine: 11 ± 3^a %
  magnitude estimation (ME), thiophene: 7 ± 2^a %
[4]
  detection threshold (DT), thiophene: 10.0 ± 0.7 BU
  hedonic value (H), amyl acetate: −1 ± 4%
  hedonic value (H), nitrobenzene: 2 ± 2^a %
  hedonic value (H), pyridine: −11 ± 5^a %
  hedonic value (H), thiophene: −4 ± 2^a %
  magnitude estimation (ME), amyl acetate: 5 ± 3^a %
  magnitude estimation (ME), nitrobenzene: 4 ± 3^a %
  magnitude estimation (ME), pyridine: 10 ± 4^a %
  magnitude estimation (ME), thiophene: 4 ± 2^a %
[5]
  detection threshold (DT), amyl acetate: 7.0 ± 0.3 BU
  detection threshold (DT), nitrobenzene: 6.9 ± 0.3^a BU
  detection threshold (DT), pyridine: 6.9 ± 0.2 BU
  detection threshold (DT), thiophene: 6.5 ± 0.3 BU
  hedonic value (H), amyl acetate: 3 ± 2%
  hedonic value (H), nitrobenzene: 7 ± 2%
  hedonic value (H), pyridine: −28 ± 2%
  hedonic value (H), thiophene: −19 ± 2%
  magnitude estimation (ME), amyl acetate: 19 ± 2%
  magnitude estimation (ME), nitrobenzene: 22 ± 2%
  magnitude estimation (ME), pyridine: 35 ± 2%
  magnitude estimation (ME), thiophene: 27 ± 2%
  recognition threshold (RT), amyl acetate: 9.3 ± 0.2 BU
  recognition threshold (RT), nitrobenzene: 8.8 ± 0.3 BU
  recognition threshold (RT), pyridine: 8.2 ± 0.2^a BU
  recognition threshold (RT), thiophene: 8.2 ± 0.3^a BU
[6]
  detection threshold (DT), amyl acetate: 6.1 ± 0.4^a BU
  detection threshold (DT), nitrobenzene: 6.3 ± 0.4^a BU
  detection threshold (DT), pyridine: 6.3 ± 0.3^a BU
  detection threshold (DT), thiophene: 5.7 ± 0.4 BU
  hedonic value (H), amyl acetate: 0.3 ± 2.8%
  hedonic value (H), nitrobenzene: 11 ± 3%
  hedonic value (H), pyridine: −34 ± 3%
  hedonic value (H), thiophene: −23 ± 3%
  magnitude estimation (ME), amyl acetate: 21 ± 3%
  magnitude estimation (ME), nitrobenzene: 27 ± 3^a %
  magnitude estimation (ME), pyridine: 41 ± 3^a %
  magnitude estimation (ME), thiophene: 31 ± 3%
  recognition threshold (RT), amyl acetate: 8.8 ± 0.4^a BU
  recognition threshold (RT), nitrobenzene: 8.2 ± 0.4^a BU
  recognition threshold (RT), pyridine: 7.7 ± 0.3^a BU
  recognition threshold (RT), thiophene: 7.6 ± 0.4^a BU
[7]
  detection threshold (DT), amyl acetate: 6.8 ± 0.3^a BU
  detection threshold (DT), nitrobenzene: 6.8 ± 0.3^a BU
  detection threshold (DT), pyridine: 6.7 ± 0.3^a BU
  detection threshold (DT), thiophene: 6.1 ± 0.3^a BU
  hedonic value (H), amyl acetate: 7 ± 2%
  hedonic value (H), nitrobenzene: 11 ± 2%
  hedonic value (H), pyridine: −25 ± 3%
  hedonic value (H), thiophene: −20 ± 2%
  magnitude estimation (ME), amyl acetate: 19 ± 2%
  magnitude estimation (ME), nitrobenzene: 24 ± 2%
  magnitude estimation (ME), pyridine: 33 ± 2%
  magnitude estimation (ME), thiophene: 27 ± 2%
  recognition threshold (RT), amyl acetate: 8.9 ± 0.3^a BU
  recognition threshold (RT), nitrobenzene: 8.4 ± 0.3 BU
  recognition threshold (RT), pyridine: 8.9 ± 0.3 BU
